A short description of series [1]: Cyclic voltammetry, redox potentials. In kind it is physicochemical. The text has this:
All reagents and solvents used were purchased from commercial sources and used as received unless otherwise noted. Prior to use, methanol (Pharmco-Aaper) was distilled over magnesium metal, dimethyl sulfoxide (Fisher Scientific) was distilled over calcium hydride, triethylamine was distilled over sodium metal and unstabilized dichloromethane (Fisher Scientific) was distilled over calcium hydride. Ferrocene was purified by sublimation for use as a reference for electrochemical analyses. All manipulations involving ferrous complexes were carried out in an inert atmosphere glovebox (M. Braun, Stratham, N.H.) with distilled and thoroughly degassed solvents. UV/Vis spectra were collected using a Hewlett Packard Spectrometer (8453). IR spectra were collected using a Thermo Nicolet AVATAR 330-FT-IR. Cyclic voltammetry experiments were performed using a Princeton Applied Research model 273 potentiostat with a glassy carbon working electrode, a silver wire reference electrode and a platinum wire counter electrode. Electron Paramagnetic Resonance (EPR) spectra were collected on a Bruker ESP-300E spectrometer operating at 9.460 GHz. NMR spectra were recorded at 25° C. using a Varian spectrometer operating at 400 MHz with all chemical shifts referenced to SiMe4. Iron concentrations were determined using a Varian AA240Z Atomic Absorption Spectrometer.
Cyclic voltammetry was performed inside an inert atmosphere (N2) box, with degassed DMSO as the solvent and tetra-N-butylammonium hexafluorophosphate as the supporting electrolyte (0.2M). The ferrocenium/ferrocene couple was used as an internal reference; reduction potential values were corrected by assigning the ferrocenium/ferrocene couple to 0.64 V versus NHE (Zanello, P. Inorganic Electrochemistry; The Royal Society of Chemistry: Cambridge, 2003). Chloride titration experiments were performed by collecting CV data after the addition of one and two 50 μL aliquots of 204 mM [NEt4][Cl] to 3.0 mL of 3.4 mM [Fe^II(N2O1py)(Cl)2]^− (concentration determined using flame atomic absorption spectroscopy) and correcting the potential with reference to the ferrocenium/ferrocene couple.
It should be noted that these redox potentials were determined in the absence of excess halide, and further CV studies will be performed in the presence of excess halide for all derivatives of the N2O1py system.

The conditions of series [2]: cited from earlier work; for second order rate constant k of NO binding: 20° C., stopped-flow with laser flash photolysis.
Series [3] can be described thus: Stopped-flow kinetics of NO binding at −85° C. in methanol. The note with it: NO 6.4 mM. The source says: (§1) Stopped-flow Spectroscopy and Data analysis.
Series [4] can be described thus: Room temperature O2 reactivity of ferrous complexes followed by UV/vis. The conditions noted are these: αKG adduct. The protocol:
The solution was transferred to an anaerobic UV/vis cell and sealed. An initial spectrum was obtained of the ferrous complex, and then the solution was exposed to the air. Spectra were recorded every minute for the first two minutes and then every 5-30 minutes after that for seven hours. The absorbance was monitored at 350 nm to follow formation of the oxidized complex.
This solution was then transferred to an anaerobic UV/vis cell and sealed. An initial spectrum was obtained of the ferrous complex, and then the solution was exposed to the air. Spectra were collected every minute for the first 30 minutes and then every 5-20 minutes after that for 2 hours. The absorbance was monitored at 315 nm to follow formation of the oxidized complex.

A short description of series [5]: Catalytic oxidation of methanol to formaldehyde with α-KG and O2 (Nash assay). The conditions noted are these: N2O1py system, five equivalents [Na][αKG], O2, 60 min.
For series [6] the following is noted: estimated value for the functional group; cited from earlier work.
A short description of series [7]: Low-temperature stopped-flow kinetics of adduct complexes with dioxygen. The conditions noted are these: complex 0.94-1.1 mM, O2 5 mM, methanol, −85° C. The protocol:
as §1
Kinetic studies of [Fe^II(N2O1)(α-KG)(CH3OH)]^− and [Fe^II(N2O1)(p-X-BF)(CH3OH)]^− adduct complexes with dioxygen. Low-temperature stopped flow studies of this reaction were performed.
Order dependence analysis.
The kinetic model was built by starting from simple two- and three-exponential processes.
Stoichiometry of the equations for the proposed model in FIG. 29: […]

Results on 10 molecules are retold here after US10428043B2, “Green oxidation catalytic system” (TRUSTEES OF BOSTON UNIVERSITY, priority 2014, dated 2019).

For `CN(C)CCN(C)CC(=O)[O-].[Cl-].[Cl-].[Cl-].[Fe+3]` [Fe^III N2O1, [Fe^III(N2O1)(Cl)3]], the E1/2 result in series [1] (no added halide, in mV) was “+136”.

As to `CN(C)c1cccc2cccc([NH+](C)C)c12.CN(CC(=O)[O-])Cc1ccccn1.[Cl-].[Cl-].[Cl-].[Fe+3]` [Fe^III N2O1py, [PSH][Fe^III(N2O1py)(Cl)3]], the ΔE in series [1] (no added halide) was 128 mV. In series [1] (no added halide, in mV), the E1/2 result was “+189”.

`O.O.O=C([O-])CN(CCN(CC(=O)[O-])CC(=O)O)CC(=O)[O-].[Cl-].[K+].[Ru+3]` [K[Ru^III(Hedta)Cl].2H2O]: the “rate k of reaction with NO” value in series [2] (room temperature, aqueous solution, depending on pH) is 38000 to 120000 M⁻¹ s⁻¹. In series [3], the “k20 (loss of a ligand before NO binding)” value is 8.2 s⁻¹ and the “k21 (second order, NO binding)” value turned out to be 127 M⁻¹ s⁻¹.

On to `O.O.O.O.O.O.[Fe+2]` [[Fe(H2O)6)]^2+], for which the “second order rate constant k of NO binding” value in series [2] is 1.42e+06 M⁻¹ s⁻¹.

Consider `CN(CC(=O)[O-])Cc1ccccn1.O=C([O-])CCC(=O)C(=O)[O-].[Fe+2]` [[Fe^II(N2O1py)(αKG)]], for which the “time for reaction with O2, in words” value in series [4] is listed as “within minutes”. Also, the “turnover number (equivalents of formaldehyde per iron center)” value in series [5] (iron complex 1.0 μM) is 33. The “turnover number (equivalents of formaldehyde per equivalent of iron)” value in series [5] (iron complex 100 μM) amounted to 0.7.

Consider `C#Cc1ccnc(CN(C)CC(=O)[O-])c1.CC[NH+](CC)CC.CO.[Cl-].[Cl-].[Fe+2]` [[Fe^II(N2O1py-alkyne)], [C6H16N][Fe^II(N2O1-alkyne)(MeOH)(Cl)2]], for which the E1/2 in series [1] (DMSO, glassy carbon working electrode, absence of excess halide) was found to be 270 mV.

On to `N#C[N-]C#N.N#C[N-]C#N.N#C[N-]C#N.N#C[N-]C#N.N#C[N-]C#N.[Cl-].[Fe+2]` [[Fe^II(dca)5Cl]^4−], for which the “second order rate constant k of NO binding” value in series [2] is 1.7e+07 M⁻¹ s⁻¹.

As to `CN(CC(=O)O)Cc1ccccn1` [[H2N2O1py]^+, 2-(methyl(pyridine-1-ium-2-ylmethyl)ammonio)acetate], in series [6], the “estimated pKa, carboxylic acid” value is on record as ~4.8; the “estimated pKa, pyridinium” value was ~5.2; the “estimated pKa, tertiary ammonium” value is on record as ~10.

Consider `CN(C)CCN(C)CC(=O)[O-].CO.N#Cc1ccc(C(=O)C(=O)[O-])cc1.[Fe+2]` [compound 25, [Fe^II(N2O1)(p-CN-BF)(CH3OH)]], for which, in series [7], the “k′1” value was 8.7 ± 1.2 s⁻¹, the “k′2” value was 140 ± 12 M⁻¹ s⁻¹, the “k′3” value came to 60 ± 5 s⁻¹ and the “k′4 (k′4obs)” value stood at 0.2 ± 0.02 s⁻¹.

In the case of `CN(C)CCN(C)CC(=O)[O-].CO.Nc1ccc(C(=O)C(=O)[O-])cc1.[Fe+2]` [compound 26, [Fe^II(N2O1)(p-NH2-BF)(CH3OH)]], in series [7], the “k′1” value came to 8.5 ± 1.8 s⁻¹, the “k′2” value worked out at 2700 ± 300 M⁻¹ s⁻¹, the “k′3” value was 1.0 ± 0.2 s⁻¹ and the “k′4 (k′4obs)” value came to 1.7 ± 0.4 s⁻¹.
